Test results published in PubChem BioAssay AID248 (DTP/NCI, 2004).
Values joined by “and” are separate entries in the source; they are usually repeats but may differ in a detail not shown here. Equal entries are not always repeated. Inconclusive results and toxic doses are left out. Rule as the data show it: active = T/C of 150% or more; inactive = T/C below 125%.

Tested on: L1210 leukemia ip in BDF1 mice, survival T/C
Assay: NCI In Vivo Anticancer Drug Screen. Data for tumor model L1210 Leukemia (intraperitoneal) in B6D2F1 (BDF1) mice
Settings: endpoint: mean survival time, higher = longer survival
Procedure, shortened: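 Tumor cells were implanted, animals were treated, and survival was followed. The result divides the treated measurement by the vehicle-control measurement.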

[1] = dose: 25.0 mg/kg/injection, schedule: Q01DX009 (ip), vehicle: saline with Tween-80
[2] = dose: 50.0 mg/kg/injection, schedule: Q01DX009 (ip), vehicle: saline with Tween-80
[3] = dose: 100.0 mg/kg/injection, schedule: Q01DX009 (ip), vehicle: saline with Tween-80
[4] = dose: 100.0 mg/kg/injection, schedule: Q04DX003 (ip), vehicle: saline with Tween-80
[5] = dose: 200.0 mg/kg/injection, schedule: Q01DX009 (ip), vehicle: saline with Tween-80
[6] = dose: 400.0 mg/kg/injection, schedule: Q01DX009 (ip), vehicle: saline with Tween-80
[7] = dose: 100.0 mg/kg/injection, schedule: Q04DX003 (ip), vehicle: saline
[8] = dose: 200.0 mg/kg/injection, schedule: Q04DX003 (ip), vehicle: saline
[9] = dose: 100.0 mg/kg/injection, schedule: Q04DX003 (ip), vehicle: Klucel (hydroxypropylcellulose) (HPC)
[10] = dose: 200.0 mg/kg/injection, schedule: Q04DX003 (ip), vehicle: Klucel (hydroxypropylcellulose) (HPC)
[11] = dose: 400.0 mg/kg/injection, schedule: Q04DX003 (ip), vehicle: Klucel (hydroxypropylcellulose) (HPC)
[12] = dose: 100.0 mg/kg/injection, schedule: Q01DX001 (ip), vehicle: carboxymethylcellulose (CMC)
[13] = dose: 200.0 mg/kg/injection, schedule: Q01DX001 (ip), vehicle: carboxymethylcellulose (CMC)
[14] = dose: 400.0 mg/kg/injection, schedule: Q01DX001 (ip), vehicle: carboxymethylcellulose (CMC)

Measured: T/C

CCC(=O)NC1CC(OC2CC(O)(C(C)=O)Cc3c(O)c4c(c(O)c32)C(=O)c2c(OC)cccc2C4=O)OC(C)C1O (stereo unspecified)
inactive: dose: 2.0 mg/kg/injection, schedule: Q04DX003 (ip), vehicle: water 104 % of control | dose: 3.12 mg/kg/injection, schedule: Q01DX009 (ip), vehicle: saline with Tween-80 96 % of control | dose: 4.0 mg/kg/injection, schedule: Q04DX003 (ip), vehicle: water 105 % of control | dose: 6.25 mg/kg/injection, schedule: Q01DX009 (ip), vehicle: saline with Tween-80 105 % of control | dose: 8.0 mg/kg/injection, schedule: Q04DX003 (ip), vehicle: water 103 % of control | dose: 12.5 mg/kg/injection, schedule: Q01DX009 (ip), vehicle: saline with Tween-80 105 % of control | dose: 16.0 mg/kg/injection, schedule: Q04DX003 (ip), vehicle: water 101 % of control and 102 % of control | dose: 18.75 mg/kg/injection, schedule: Q04DX003 (ip), vehicle: saline with Tween-80 105 % of control | [1] 111 % of control | dose: 32.0 mg/kg/injection, schedule: Q04DX003 (ip), vehicle: water 116 % of control | dose: 37.5 mg/kg/injection, schedule: Q04DX003 (ip), vehicle: saline with Tween-80 105 % of control | [2] 113 % of control | dose: 64.0 mg/kg/injection, schedule: Q04DX003 (ip), vehicle: water 112 % of control | dose: 75.0 mg/kg/injection, schedule: Q04DX003 (ip), vehicle: saline with Tween-80 105 % of control | dose: 150.0 mg/kg/injection, schedule: Q04DX003 (ip), vehicle: saline with Tween-80 122 % of control | dose: 125.0 micrograms/kg/injection, schedule: Q04DX003 (ip), vehicle: water 100 % of control | dose: 250.0 micrograms/kg/injection, schedule: Q04DX003 (ip), vehicle: water 102 % of control | dose: 500.0 micrograms/kg/injection, schedule: Q04DX003 (ip), vehicle: water 97 % of control | dose: 1000.0 micrograms/kg/injection, schedule: Q04DX003 (ip), vehicle: water 103 % of control | dose: 2000.0 micrograms/kg/injection, schedule: Q04DX003 (ip), vehicle: water 96 % of control

ClCCCC1(c2ccc(Oc3ccccc3)cc2)OCCO1
inactive: [3] 88 % of control | [4] 105 % of control | [5] 92 % of control | dose: 200.0 mg/kg/injection, schedule: Q04DX003 (ip), vehicle: saline with Tween-80 95 % of control | [6] 93 % of control | dose: 400.0 mg/kg/injection, schedule: Q04DX003 (ip), vehicle: saline with Tween-80 94 % of control

CC1C(c2ccccc2)OCN1CN1C(=O)C=CC1=O (stereo unspecified) (tested in a mixture with another compound)
inactive: [4] 90 % of control

CC(Br)C(=O)O (stereo unspecified)
inactive: dose: 50.0 mg/kg/injection, schedule: Q01DX001 (ip), vehicle: saline 94 % of control | dose: 100.0 mg/kg/injection, schedule: Q01DX001 (ip), vehicle: saline 111 % of control

CC(C)(C)N1CCC1CN (stereo unspecified)
inactive: dose: 75.0 mg/kg/injection, schedule: Q01DX001 (ip), vehicle: saline 104 % of control | dose: 150.0 mg/kg/injection, schedule: Q01DX001 (ip), vehicle: saline 102 % of control | dose: 300.0 mg/kg/injection, schedule: Q01DX001 (ip), vehicle: saline 102 % of control

C1CCC2[N-]CC3CCCCC3[N-]CC3CCCCC3[N-]CC3CCCCC3[N-]CC2C1.[Cu] (stereo unspecified)
inactive: dose: 20.0 mg/kg/injection, schedule: Q01DX001 (ip), vehicle: Klucel (hydroxypropylcellulose) (HPC) 110 % of control | dose: 40.0 mg/kg/injection, schedule: Q01DX001 (ip), vehicle: Klucel (hydroxypropylcellulose) (HPC) 117 % of control | dose: 100.0 mg/kg/injection, schedule: Q01DX001 (ip), vehicle: Klucel (hydroxypropylcellulose) (HPC) 116 % of control

CCOc1ccc(Br)cc1/C=N\NC(=O)c1ccccc1N(C)C
inactive: dose: 100.0 mg/kg/injection, schedule: Q04DX002 (ip), vehicle: gum acacia 90 % of control | dose: 200.0 mg/kg/injection, schedule: Q04DX002 (ip), vehicle: gum acacia 100 % of control | dose: 400.0 mg/kg/injection, schedule: Q04DX002 (ip), vehicle: gum acacia 90 % of control

c1cn2cncc2cn1
inactive: dose: 25.0 mg/kg/injection, schedule: Q01DX009 (ip), vehicle: saline 90 % of control | dose: 50.0 mg/kg/injection, schedule: Q01DX009 (ip), vehicle: saline 103 % of control | dose: 100.0 mg/kg/injection, schedule: Q01DX009 (ip), vehicle: saline 88 % of control | [7] 103 % of control | [8] 94 % of control

COc1ccc(OC)c(NC(=O)Nc2cc(C)ccc2OC)c1
inactive: [9] 95 % of control | [10] 92 % of control | [11] 97 % of control

COc1cccc(C2=CCCCC2)c1
inactive: dose: 50.0 mg/kg/injection, schedule: Q01DX001 (ip), vehicle: carboxymethylcellulose (CMC) 96 % of control | [12] 93 % of control | [13] 96 % of control | [14] 98 % of control

Cc1cc[n+]([O-])nc1N(C)N
inactive: dose: 50.0 mg/kg/injection, schedule: Q04DX002 (ip), vehicle: saline 101 % of control | dose: 100.0 mg/kg/injection, schedule: Q04DX002 (ip), vehicle: saline 104 % of control | dose: 200.0 mg/kg/injection, schedule: Q04DX002 (ip), vehicle: saline 96 % of control

CCSc1nc2nccnc2c(=O)[nH]1
inactive: dose: 100.0 mg/kg/injection, schedule: Q01DX009 (ip), vehicle: Klucel (hydroxypropylcellulose) (HPC) 98 % of control | [9] 97 % of control | dose: 200.0 mg/kg/injection, schedule: Q01DX009 (ip), vehicle: Klucel (hydroxypropylcellulose) (HPC) 102 % of control | [10] 92 % of control | dose: 400.0 mg/kg/injection, schedule: Q01DX009 (ip), vehicle: Klucel (hydroxypropylcellulose) (HPC) 102 % of control | [11] 92 % of control

O=C(/C=C\c1cccc2ccccc12)c1ccc2ccccc2c1
inactive: [3] 100 % of control | dose: 100.0 mg/kg/injection, schedule: Q04DX002 (ip), vehicle: saline with Tween-80 88 % of control | [5] 90 % of control | dose: 200.0 mg/kg/injection, schedule: Q04DX002 (ip), vehicle: saline with Tween-80 88 % of control | [6] 93 % of control | dose: 400.0 mg/kg/injection, schedule: Q04DX002 (ip), vehicle: saline with Tween-80 88 % of control

CCCCCCC1=NC(C)(C)CO1
inactive: [1] 102 % of control | [2] 97 % of control | dose: 50.0 mg/kg/injection, schedule: Q04DX003 (ip), vehicle: saline 99 % of control | [3] 102 % of control | [7] 97 % of control | [5] 102 % of control | [8] 91 % of control

c1ccc2c(c1)ccc1[nH]c3c(c12)CCCC3
inactive: [12] 95 % of control | [13] 90 % of control | [14] 97 % of control

C=CCCCCCCCCC(=O)NC/C(Br)=C/Br
inactive: dose: 75.0 mg/kg/injection, schedule: Q01DX009 (ip), vehicle: Klucel (hydroxypropylcellulose) (HPC) 103 % of control | dose: 150.0 mg/kg/injection, schedule: Q01DX009 (ip), vehicle: Klucel (hydroxypropylcellulose) (HPC) 108 % of control | dose: 300.0 mg/kg/injection, schedule: Q01DX009 (ip), vehicle: Klucel (hydroxypropylcellulose) (HPC) 93 % of control

NC(CSSc1ccccc1)=NC1CCCCC1
inactive: dose: 12.5 mg/kg/injection, schedule: Q04DX002 (ip), vehicle: other 98 % of control | dose: 25.0 mg/kg/injection, schedule: Q04DX002 (ip), vehicle: other 109 % of control | dose: 50.0 mg/kg/injection, schedule: Q04DX002 (ip), vehicle: other 91 % of control
